# US20020106354A1, “CELLULAR AND ANIMAL MODELS FOR DISEASES ASSOCIATED WITH ALTERED MITOCHONDRIAL FUNCTION” (priority 1998, published 2002)
# Tests used:
# INS-1 cells [1] = test: Quantification of mitochondrial DNA by slot blotting (COX-I probe) in INS-1 cells treated with nucleoside analogs; format: cell-based, rat; details: for depleted for mtDNA / depleted for mitochondrial DNA / Relative [mtDNA] After Contact w/ Antiviral / effect on mtDNA content: seven days; for effect on mtDNA content: varying concentrations
# Description: Media were replenished every two days. Cells were harvested at periodic intervals and assayed for insulin secretion and mtDNA content. INS-1 cells, or ρ^[…] cells generated using ddC as described above, were seeded into 12-well plates containing RPMI media supplemented as described above at 0.4×10^6 cells/well and cultured at 37° C., 5% CO2 for 2 days. Cells (0.7×10^6 cells/well) were rinsed with PBS and total cellular DNA was extracted using DNAzol (Molecular Research Center, Inc., Cincinnati, Ohio) according to the manufacturer's instructions. One hundred ng DNA from each cell preparation was slot-blotted onto a Zeta-Probe membrane (Bio-Rad, Hercules, Calif.) and crosslinked at 125 joules using a BioRad GS GeneLinker irradiation/energy source. The membranes were rinsed in hybridization buffer (5× SSC, 0.1% N-laurylsarcosine, 0.02% SDS, 1% blocking solution, Boehringer Mannheim, Indianapolis, Ind.) and hybridized overnight in the same buffer at 42° C. with the [^32P]-labeled rat COX I probe. Following hybridization, membranes were washed twice with 2X SSC/0.1% SDS and twice with 0.1× SSC/0.1% SDS and exposed to X-ray film. Mitochondrial DNA was quantified by densitometric scanning of the resulting autoradiographs. Time Course of Effects of ddC on Mitochondrial DNA Content of INS-1 Cells INS-1 cells were grown in RPMI medium supplemented with 10% fetal calf serum, 2 mM […], 100 U/ml penicillin, 100 μg/ml streptomycin, 10 mM HEPES, 1 mM sodium pyruvate, 50 μg/ml uridine, and 50 μM β-mercaptoethanol, in the presence of 10 μM ddC. After various times in culture, cells were harvested for analysis of mtDNA content. Total cellular DNA was extracted from approximately one million cells using DNAzol (Molecular Research Center, Inc. Cincinnati, Ohio) essentially according to the manufacturer's instructions. One hundred ng total DNA was analyzed by slot-blot on Zeta-Probe membranes (Bio-Rad, Hercules, Calif.). The membranes were hybridized with a [^32P]-labeled probe complementary to the mitochondrial gene encoding COXI. Autoradiograms were prepared, and the relative content of mitochondrial DNA (mtDNA) estimated by the relative densities of the autoradiographic bands.
# patients = details: cited from earlier work
# INS-1 cells [2] = test: Insulin secretion by mtDNA-depleted INS-1 cells (insulin radioimmunoassay); format: cell-based, rat; details: 10 μM for 40 days
# Description: INS-1 cells, or ρ^[…] cells generated using ddC as described above, were seeded into 12-well plates containing RPMI media supplemented as described at 0.5×10^6 cells/well and cultured at 37° C., 5% CO2 for 2 days. Cells (0.7×10^6 cells/well were rinsed with glucose-free KRH buffer (134 mM NaCl, 4.7 mM KCl, 1.2 mM KH2PO4, 1.2 mM MgSO4, 1.0 mM CaCl2, 10 mM HEPES, 10 mM NaHCO3, 0.5% BSA), then incubated in the same buffer for 1 hr at 37° C. in a humidified 5% Co2/95% air atmosphere. Fresh KRH buffer containing 0.5 mM isobutylmethyl xanthine and the following secretagogues was added: 5 mM glucose, 10 mM glucose, 20 mM glucose, 5 mM KCl or 20 mM KCl. After an additional 1 hr at 37° C., 5% CO2 the culture supernatants were collected. Insulin concentrations in the supernatants were measured and normalized to cell number using an insulin-specific radioimmunoassay kit (ICN Biochemicals, Irvine, CA) according to the manufacturer's instructions.
# INS-1 cells [3] = test: Lactate production in ddC-treated INS-1 cells; format: cell-based, rat
# Description: Lactate production was measured in ddC-treated and control INS-1 cells at approximately day 40 and day 50 of ddC incubation. Cells were grown in 35 mm dishes. Media were replenished 16 hr before assay with normal culture media containing various amounts of glucose. The media were then collected, and lactate measured using a commercially available kit, in which lactate dehydrogenase is used to produce a fluorescent compound (Sigma, St. Louis, Mo.), essentially according to the manufacturer's instructions.
# INS-1 cells [4] = test: Oxygen consumption (Clark oxygen electrode) before and after KCN; format: cell-based, rat; details: ddC for >50 days (Rho revertants), before and after 1 uM KCN (FIG. 4)
# Description: Neurochem. 67:1897-1907, 1996) before and after the addition of 1 uM KCN. KCN inhibits mitochondrial respiration, primarily via its effect on Complex IV activity.
structure (smiles),measurement,setting,value
"Cc1cn([C@H]2C[C@H](N=[N+]=[N-])[C@@H](CO)O2)c(=O)[nH]c1=O [AZT, 3′-azido-3′ deoxythymidine]",depleted for mtDNA,INS-1 cells [1]; 5 μM,no depletion of mtDNA
same,depleted for mtDNA,INS-1 cells [1]; 10 μM,4%
same,depleted for mtDNA,INS-1 cells [1]; 50 μM,15%
same,depleted for mitochondrial DNA,INS-1 cells [1]; 100 μM,no depletion of mtDNA
"O=c1[nH]c(=O)n([C@@H]2O[C@H](CO)[C@@H](O)[C@@H]2F)cc1I [FIAU, fialuridine]",Relative [mtDNA] After Contact w/ Antiviral,"INS-1 cells [1]; 10 μM, INS-1 cells",0.66
same,depleted for mitochondrial DNA,INS-1 cells [1]; 100 μM,61%
same,Relative [mtDNA] After Contact w/ Antiviral,"INS-1 cells [1]; 100 μM, INS-1 cells",0.39
"Cc1cn([C@H]2C=C[C@@H](CO)O2)c(=O)[nH]c1=O [d4T, 2′3′-didehydro-3-deoxythymidine]",Relative [mtDNA] After Contact w/ Antiviral,"INS-1 cells [1]; 10 μM, INS-1 cells",0.98
same,Relative [mtDNA] After Contact w/ Antiviral,"INS-1 cells [1]; 50 μM, INS-1 cells",0.56
same,depleted for mitochondrial DNA,INS-1 cells [1]; 100 μM,95%
same,Relative [mtDNA] After Contact w/ Antiviral,"INS-1 cells [1]; 100 μM, INS-1 cells",0.05
same,effect on mtDNA content,INS-1 cells [1]; INS-1 cells (FIG. 1),decreased mtDNA content in a dose-dependent fashion
same,side-effect of treatment: peripheral neuropathy,patients,axonal peripheral neuropathy
"Nc1ccn([C@H]2CC[C@@H](CO)O2)c(=O)n1 [ddC, 2′3′-dideoxycytidine]",Relative [mtDNA] After Contact w/ Antiviral,"INS-1 cells [1]; 5 μM, INS-1 cells",0.86
same,Relative mtDNA content per million cells,"INS-1 cells [1]; 10 μM ddC, day 3",0.46
same,Relative mtDNA content per million cells,"INS-1 cells [1]; 10 μM ddC, day 7",0.41
same,Relative mtDNA content per million cells,"INS-1 cells [1]; 10 μM ddC, day 14",0.055
same,Relative mtDNA content per million cells,"INS-1 cells [1]; 10 μM ddC, day 21",0.020
same,Relative mtDNA content per million cells,"INS-1 cells [1]; 10 μM ddC, day 40",0.0021
same,Relative mtDNA content per million cells,"INS-1 cells [1]; 10 μM ddC, day 60",0.550
same,Relative mtDNA content per million cells,"INS-1 cells [1]; 10 μM ddC, day 80",0.81
same,mtDNA content relative to pretreatment (day 0),"INS-1 cells [1]; 10 μM ddC, day 80, about one million cells",about 80%
same,mtDNA detectability,"INS-1 cells [1]; 10 μM, 40 days",undetectable
same,Relative [mtDNA] After Contact w/ Antiviral,"INS-1 cells [1]; 10 μM, INS-1 cells",0.86
same,mtDNA detectability,"INS-1 cells [1]; 25 μM, after 21 days, INS-1 cells",undetectable
same,Relative [mtDNA] After Contact w/ Antiviral,"INS-1 cells [1]; 50 μM, INS-1 cells",0.41
same,depleted for mitochondrial DNA,INS-1 cells [1]; 100 μM,69%
same,Relative [mtDNA] After Contact w/ Antiviral,"INS-1 cells [1]; 100 μM, INS-1 cells",0.31
same,IC50,"INS-1 cells [1]; Rattus norvegicus, INS1, 168 h, seven days incubation, INS-1 cells (FIG. 1), read-out: IC50 for decrease of mtDNA content",~50 µM
same,effect on mtDNA content,INS-1 cells [1]; INS-1 cells (FIG. 1),decreased mtDNA content in a dose-dependent fashion
same,KCl-mediated insulin secretion,INS-1 cells [2],remained intact
same,glucose stimulated insulin secretion,"INS-1 cells [2]; 5, 10, 20 mM glucose (FIG. 3)",no glucose stimulated insulin secretion was observed
same,lactate produced relative to control (untreated) cells,"INS-1 cells [3]; 40-day ddC-treated cells, 25 or 50 mM glucose",> 5 times
same,lactate produced compared with control (untreated) cells,INS-1 cells [3]; after more than about 50 days ddC,comparable amounts of lactate
same,mitochondrial-mediated respiration (oxygen consumption),INS-1 cells [4],mitochondrial-mediated respiration (Complex IV activity) was present
same,side-effect of treatment: peripheral neuropathy,patients,axonal peripheral neuropathy
same,side-effect of treatment: neuropathy,patients; particularly diabetics,toxic and painful neuropathy
"O=c1[nH]cnc2c1ncn2[C@H]1CC[C@@H](CO)O1 [ddI, 2′3′-dideoxyinosine]",depleted for mitochondrial DNA,INS-1 cells [1]; 100 μM,80%
same,effect on mtDNA content,INS-1 cells [1]; INS-1 cells (FIG. 1),decreased mtDNA content in a dose-dependent fashion
